Reference: PubChem BioAssay AID1963974 (Molecular Pharmacology Branch, DTP, NCI, 2024)
pIC50: −log10 of the molar value.

Tested on: 648629-189-R-J1-PDC spheroids with HUVEC/MSC, viability
Test: Anticancer human tumor 648629-189-R-J1-PDC patient-derived bladder carcinoma cell line growth inhibition [PI3K]
Conditions: for pIC50: curve of first compound; for viability, T/C: stronger effect = lower value
Text: Combinatorial screen of targeted agents with the PI3K inhibitors inavolisib, alpelisib, duvelisib, and copanlisib in multi-cell type tumor spheroids
A high-throughput screen of multi-cell type tumor spheroids was designed to identify active combinations of targeted small molecules and PI3K pathway inhibitors. Complex spheroids include a stromal component modeled by human endothelial cells (HUVEC) and fibroblasts modeled by human mesenchymal stem cells (MSCs). The concentration ranges selected for each drug and investigational agent were based upon clinically achievable concentrations if the clinical Cmax of the agent was known.
Compounds. The drugs and investigational agents: inavolisib (NSC800729), alpelisib (NSC765974), duvelisib (NSC772469), copanlisib (NSC816437), ipatasertib (NSC767898), afuresertib (NSC778305), talazoparib (NSC767125), sapanisertib (NSC764658), selumetinib (NSC741078), tovorafenib (DAY101, NSC766906), vemurafenib (NSC761431), ravoxertinib (NSC781343), sotorasib (NSC818433), MRTX1133 (NSC 836407), abemaciclib (NSC 768073), palbociclib (NSC758247), venetoclax (NSC 766270), SY5609 (NSC837396), enzalutamide (NSC755605), and darolutamide (NSC825331), were obtained from the National Cancer Institute (NCI) Developmental Therapeutics Program Chemical Repository. The FDA-approved anticancer drug set is available from the NCI Developmental Therapeutics Program. […] The stock solutions were prepared in dimethyl sulfoxide (DMSO, Sigma-Aldrich, St. Louis, MO, cat. D2650) at 800-fold the tested concentration and stored at -70 degrees C prior to their use. All drugs and investigational agents were tested over a range starting from a high concentration at or near the clinical Cmax and decreasing in half-log increments. If the clinical Cmax for an agent had not been determined, the highest concentration tested was 10 microM.
Cell Culture. All cells were maintained in an incubator at 37 degrees C and 5% CO2 with 95% humidity. The PDC lines were cultured according to standard operating procedures established by the NCI PDMR (https://pdmr.cancer.gov/sops/default.htm). All PDCs were thawed and cultured in Matrigel-coated flasks prepared with a working solution of 1X Ham's F-12 nutrient mix, without supplementation (Invitrogen, Waltham, MA, cat. 11765054), 100 U/mL penicillin-streptomycin (Invitrogen, cat. 15140122), and 2.5% Matrigel (Corning Inc., Corning, NY, cat. 354248) for the first three passages. The 354836-022-R-J1-PDC, 475296-252-R-J1-PDC, and 997726-040-R-J2-PDC lines were cultured in 6A media, which includes advanced DMEM/F-12 (Thermo Fisher Scientific, cat. 12634028), 10 mM HEPES (Thermo Fisher Scientific, cat. 15630080), 1X GlutaMAX supplement (Thermo Fisher Scientific, cat. 35050061), 0.1 mg/mL primocin (InvivoGen, San Diego, CA, cat. ant-pm-2), 10% defined fetal bovine serum, heat inactivated (HyClone Laboratories Inc., Logan, UT, cat. SH30070.03HI), 50% L-WRN conditioned media (ATCC, cat. CRL-3276), 1.25 mM N-Acetyl-L-cysteine (Sigma-Aldrich, cat. A9165), 10 mM nicotinamide (Sigma-Aldrich, cat. N0636), 1X B-27 supplement (Thermo Fisher Scientific, cat. 17504044), 1X N-2 supplement (Thermo Fisher Scientific, cat. 17502048), and 10 microM Y-27632 dihydrochloride (Tocris Bioscience, Bristol, United Kingdom, cat. 1254). The 624824-186-R-J2-PDC line was cultured in 6C/Colon 1B media, which includes all 6A media components plus 50 ng/mL human EGF recombinant protein (Thermo Fisher Scientific, cat. PHG0311). […]

[1] = second compound 0.00316 µM, first compound 0.0316 µM
[2] = second compound 0.00316 µM, first compound 0.1 µM
[3] = second compound 0.00316 µM, first compound 0.316 µM
[4] = second compound 0.00316 µM, first compound 1 µM
[5] = second compound 0.00316 µM, first compound 3.16 µM
[6] = second compound 0.00316 µM, first compound 10 µM
[7] = second compound 0.01 µM, first compound 0.0316 µM
[8] = second compound 0.01 µM, first compound 0.1 µM
[9] = second compound 0.01 µM, first compound 0.316 µM
[10] = second compound 0.01 µM, first compound 1 µM
[11] = second compound 0.01 µM, first compound 3.16 µM
[12] = second compound 0.01 µM, first compound 10 µM
[13] = second compound 0.0316 µM, first compound 0.0316 µM
[14] = second compound 0.0316 µM, first compound 0.1 µM
[15] = second compound 0.0316 µM, first compound 0.316 µM
[16] = second compound 0.0316 µM, first compound 1 µM
[17] = second compound 0.0316 µM, first compound 3.16 µM
[18] = second compound 0.0316 µM, first compound 10 µM
[19] = second compound 0.1 µM, first compound 0.0316 µM
[20] = second compound 0.1 µM, first compound 0.1 µM
[21] = second compound 0.1 µM, first compound 0.316 µM
[22] = second compound 0.1 µM, first compound 1 µM
[23] = second compound 0.1 µM, first compound 3.16 µM
[24] = second compound 0.1 µM, first compound 10 µM
[25] = second compound 0.316 µM, first compound 0.0316 µM
[26] = second compound 0.316 µM, first compound 0.1 µM
[27] = second compound 0.316 µM, first compound 0.316 µM
[28] = second compound 0.316 µM, first compound 1 µM
[29] = second compound 0.316 µM, first compound 3.16 µM
[30] = second compound 0.316 µM, first compound 10 µM
[31] = second compound 1 µM, first compound 0.0316 µM
[32] = second compound 1 µM, first compound 0.1 µM
[33] = second compound 1 µM, first compound 0.316 µM
[34] = second compound 1 µM, first compound 1 µM
[35] = second compound 1 µM, first compound 3.16 µM
[36] = second compound 1 µM, first compound 10 µM
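Note: spheroids exposed to agents for seven days before reading.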
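Throughout, for viability, T/C: percent of vehicle control luminescence where 100% = DMSO treated spheroids.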

C#Cc1c(F)ccc2cc(O)cc(-c3ncc4c(N5CC6CCC(C5)N6)nc(OCC56CCCN5CC(F)C6)nc4c3F)c12 (centres undefined) + CC(Nc1ccc2c(c1)OCCn1cc(N3C(=O)OCC3C(F)F)nc1-2)C(N)=O
pIC50 (second compound 0.00316 µM): < 5.00 | pIC50 (second compound 0.01 µM): < 5.00 | pIC50 (second compound 0.0316 µM): < 5.00 | pIC50 (second compound 0.1 µM): < 5.00 | pIC50 (second compound 0.316 µM): < 5.00 | pIC50 (second compound 1 µM): < 5.00 | viability, T/C [1]: 105% | viability, T/C [2]: 96.2% | viability, T/C [3]: 109% | viability, T/C [4]: 96.6% | viability, T/C [5]: 120% | viability, T/C [6]: 102% | viability, T/C [7]: 97.9% | viability, T/C [8]: 99.9% | viability, T/C [9]: 96.3% | viability, T/C [10]: 97% | viability, T/C [11]: 106% | viability, T/C [12]: 85.8% | viability, T/C [13]: 105% | viability, T/C [14]: 100% | viability, T/C [15]: 93.2% | viability, T/C [16]: 99.1% | viability, T/C [17]: 103% | viability, T/C [18]: 92.5% | viability, T/C [19]: 92.7% | viability, T/C [20]: 85.5% | viability, T/C [21]: 81.7% | viability, T/C [22]: 90% | viability, T/C [23]: 95.4% | viability, T/C [24]: 89.3% | viability, T/C [25]: 82.3% | viability, T/C [26]: 75% | viability, T/C [27]: 71.7% | viability, T/C [28]: 74.8% | viability, T/C [29]: 80.8% | viability, T/C [30]: 75.3% | viability, T/C [31]: 57.5% | viability, T/C [32]: 66.4% | viability, T/C [33]: 63.2% | viability, T/C [34]: 58.7% | viability, T/C [35]: 64.5% | viability, T/C [36]: 57.4%

C=CC(=O)N1CCN(c2nc(=O)n(-c3c(C)ccnc3C(C)C)c3nc(-c4c(O)cccc4F)c(F)cc23)C(C)C1 (centres undefined) + CC(Nc1ccc2c(c1)OCCn1cc(N3C(=O)OCC3C(F)F)nc1-2)C(N)=O
pIC50 (second compound 0.00316 µM): < 5.00 | pIC50 (second compound 0.01 µM): < 5.00 | pIC50 (second compound 0.0316 µM): < 5.00 | pIC50 (second compound 0.1 µM): < 5.00 | pIC50 (second compound 0.316 µM): < 5.00 | pIC50 (second compound 1 µM): < 5.00 | viability, T/C [1]: 111% | viability, T/C [2]: 99.1% | viability, T/C [3]: 117% | viability, T/C [4]: 105% | viability, T/C [5]: 106% | viability, T/C [6]: 92.3% | viability, T/C [7]: 121% | viability, T/C [8]: 106% | viability, T/C [9]: 111% | viability, T/C [10]: 114% | viability, T/C [11]: 115% | viability, T/C [12]: 92.3% | viability, T/C [13]: 101% | viability, T/C [14]: 108% | viability, T/C [15]: 98.2% | viability, T/C [16]: 106% | viability, T/C [17]: 123% | viability, T/C [18]: 92.5% | viability, T/C [19]: 92.4% | viability, T/C [20]: 106% | viability, T/C [21]: 107% | viability, T/C [22]: 115% | viability, T/C [23]: 103% | viability, T/C [24]: 92.5% | viability, T/C [25]: 92.6% | viability, T/C [26]: 93.1% | viability, T/C [27]: 84.1% | viability, T/C [28]: 95.2% | viability, T/C [29]: 84.5% | viability, T/C [30]: 78.1% | viability, T/C [31]: 73.1% | viability, T/C [32]: 71.9% | viability, T/C [33]: 73.5% | viability, T/C [34]: 80.7% | viability, T/C [35]: 91.8% | viability, T/C [36]: 66.2%
